{"source": "patent US20220389058A1", "about": "“PEPTIDES AND COMPOSITIONS FOR USE IN COSMETICS AND MEDICINE” (LIPOTRUE, S.L., priority 2019, published 2022)", "key": {"IL-33": {"system": "IL-33", "assay": "Production of protein IL-33 in HDFa cells stimulated with IFNγ, ELISA (Example 8)", "type": "cell-based, human", "settings": "HDFa cells exposed to IFNγ (300 U/mL), 0.005, 0.01 and 0.05 mg/mL, 24 hours, cell lysates", "protocol": "Adult human dermal fibroblasts (HDFa) were seeded on 24-well plate at concentration of 1×10^5 cells/mL in their corresponding growth media and incubated for 24 hours in standard culture conditions; at that time, three different concentrations (0.005, 0.01 and 0.05 mg/mL) of the Ac-SEQ ID NO: 1-NH2 were added in presence of IL-33-induction stimulus (IFNγ, 300 U/mL). Cells without stimuli were also included as basal group. Positive control group was cells treated with 300 U/mL of IFNγ, but without being treated with a peptide of the present invention. 24 hours later, conditioned media was collected, and cells processed for protein extraction.\nIL-33 levels in the cell lysates were analysed with a commercial ELISA kit (DuoSet ELISA. R&D). Absorbances were measured with an automated spectrophotometer plate-reader."}, "human skin explants": {"system": "human skin explants", "assay": "Ex vivo methylglyoxal-induced glycation, CML immunostaining (Example 14)", "settings": "cream containing 1% (w/v) Ac-SEQ ID NO: 1-NH2, topical 2 mg/cm^2; methylglyoxal 500 μM; after 9 days of culture", "protocol": "Briefly, human skin explants from a person were kept in survival in BEM culture medium at 37° C. in a humid, 5% CO2 atmosphere. […] Explants were collected at each timepoint and cut in two parts. Half was fixed in buffered formalin solution and half was frozen at −80° C.\nAfter fixation for 24 hours in buffered formalin, the samples were dehydrated and impregnated in paraffin. 5-μm-thick sections were made using a Leica RM 2125 Minot-type microtome, and the sections were mounted on Superfrost® histological glass slides."}, "[1]": {"assay": "Lipid peroxidation, TBARS assay (Example 13)", "type": "biochemical", "settings": "0.01, 0.05, 0.1 and 0.5 mg/mL; 2 hours at 37° C.; vs negative control", "protocol": "Briefly, Trolox (positive control), 0.01, 0.05, 0.1 and 0.5 mg/mL of peptide Ac-SEQ ID NO: 1-NH2 in presence of small unilamellar vesicles of egg yolk phosphatidylcholine (EYPC), a substrate for lipid peroxidation were incubated for 2 hours at 37° C. in the presence of thiobarbituric acid (TBA). A fluorimetric method was used to evaluate the % of lipid peroxidation compared to the negative control (sample only with small unilamellar vesicles of egg yolk phosphatidylcholine)."}, "emilin-1": {"system": "emilin-1", "assay": "Emilin-1 protein expression, immunofluorescence in HDLMVEC (Example 18)", "type": "cell-based, Human", "protocol": "HDLMVEC were cultured on coverslips in Microvascular Endothelial Cell Growth (MECG) Medium at a density of 16.000 cell/cm^2 and 37° C. in a humidified atmosphere with 5% CO2. When cell confluence was around 70-80%, cells were treated with 0.05 mg/mL Ac-SEQ ID NO:1-NH2 in MECG medium for 24 hours. Then, cells were washed twice with PBS, fixed with 4% formaldehyde and permeabilized with Triton 0.2%. Next, samples were blocked for 1 hour with PBS/BSA 5%, in order to avoid nonspecific antibody binding. Emilin-1 was stained with 1:50 Emilin-1 antibody in PBS/BSA 1%, during 1.5 hours at room temperature. After proper washing with PBS, actin was stained with 50 μg/mL Phalloidin during 1 hour at room temperature. Then, cells were washed with PBS and incubated with 5 μg/mL of the secondary antibody Goat anti-Rabbit IgG for 1 hour at room temperature. Finally, coverslips were mounted using Vectashield with DAPI, that stains nuclei, and samples were kept protected from light at 4° C. until microscopic images were acquired. […]\nImages were analyzed using Image J software. Shortly, threshold was adjusted to select emilin-1 staining and mean fluorescent was measured. The number of cells was counted using the DAPI staining. […]\nStatistical data analysis was performed using Student t-test by comparison of fluorescence from treated cells vs non-treated cells, *, p<0.05; **, p<0.01 and ***, p<0.001."}, "HDFa cells": {"system": "HDFa cells", "assay": "Genes related with response to sleep deprivation, RT-qPCR in HDFa (Example 16)", "type": "cell-based, Human", "settings": "0.01 mg/ml, 24 hours", "protocol": "A stock solution of the peptide was prepared in water at 1 mg/mL. Working solution was freshly prepared at the specified concentration from stock solution in the corresponding supplemented medium.\nRNA (ribonucleic acid) extraction and RT-qPCR (reverse transcription quantitative polymerase chain reaction) were performed. […]\nCells were finally lysed, and replicates were pooled together for RNA extraction using Qiagen RNeasy Mini kit following manufacturer's instructions. […] (Annealing and extension) (Arya, M., Shergill, I. S., Williamson, M., Gommersall, L., Arya, N., Patel, H. R. (2005) Basic principles of real-time quantitative PCR. Expert Rev. Mol. Diagn.; 5(2):209-19; and Jozefczuk, J. and Adjaye, J. (2011) Quantitative real-time PCR-based analysis of gene expression. Methods Enzymol. 500; 99-109).\nThe obtained data was analysed using the ΔΔCt method, which provides the target gene expression values as fold changes in the treated sample compared with an untreated basal sample. […]"}}}
{"substance": "Ac-Arg-Arg-Gln-Met-Arg-Glu-NH2 (Ac-RRQMRE-NH2) [Ac-SEQ ID NO: 1-NH2]", "values": [{"measurement": "IL-33 protein levels", "setting": "IL-33", "result": "reduces the IL-33 protein levels produced by HDFa cells exposed to IFNγ (300 U/mL) in a dose-dependent manner"}, {"measurement": "decrease in CML signal when compared with MG-exposed untreated explants", "setting": "human skin explants", "result": "−73", "unit": "%"}, {"measurement": "lipid peroxidation (TBARS)", "setting": "[1]", "result": "able to protect from lipid peroxidation"}, {"measurement": "% Mean of emilin-1 compared to untreated cells", "setting": "emilin-1; 0.05 mg/mL, 24 hours, basal = 100.00", "result": 170.88, "unit": "%"}, {"measurement": "increase of the expression of emilin-1 when compared with untreated cells", "setting": "emilin-1; 24 h of treatment", "result": "more than 70%"}, {"measurement": "IL1RL1 Fold change between treated cells and basal control", "setting": "HDFa cells", "result": "−1.26", "unit": "Fold change"}]}
